The record followed here is patent US20250102414A1, “A MICROFLUIDIC DEVICE FOR DETECTING AND CHARACTERIZING AT LEAST ONE ANALYTE, FOR EXAMPLE A CELL, IN A SAMPLE FLUID” (TECHNISCHE UNIVERSITEIT EINDHOVEN, priority 2022, published 2025).

Assay [1] concerns MCF-7 cells. In words: Label-free drug response analysis by electrical impedance (opacity) with the microfluidic device. Format: cell-based. The following applies: 1 μM STS, cultured 3 days under drug exposure, opacity clusters. As to the method: FIGS. 14a and 14b show the results of a drug response analysis for MCF-7 cells. As a first step, the viability of the cells was measured before and after analyzing these cells using one of the versions of the devices described in the present disclosure. […] Then, STS (with 1 μM concentration) were added to this well and the cells were cultured for another 3 days under the exposure of the drug.
(§1) In parallel, a control sample was also cultured under the same conditions without drug exposure was also analyzed for comparison. […] For the control sample, only one cluster, which were viable cells, were identified with 97% ratio for the total number of events. For the treated sample, 3 clusters were identified for viable, early apoptotic, and late apoptotic states with 44%, 19%, and 37% ratios, respectively. For validation, a commercially available apoptosis detection kit for fluorescent imaging were used and it provided the ratios of 47% viable and 53% apoptotic for the treated sample. A high-resolution drug response analysis were performed in a fully label free manner while keeping the cells intact, where the imaging required sample preparation and fixation of the cells, which kills the cells and the possibility of further functional analysis options.
Accordingly, embodiments of the present disclosure are capable of achieving measurement results when the electric field generating unit in the embodiments of the present disclosure delivers a voltage drop between electrodes of the present disclosure within the range of 0.1 to 0.5 V and, preferably, within the range of 0.2 to 0.4 V. The results shown in FIGS. 12, 13 and 14 were obtained with voltage values varying between 0.2-0.4 V for frequencies between 1-400 MHz with the maximum reachable voltage drop of 0.12 V, which is below the electroporation limit. […] These to be determined based on the sample, used electrolyte (medium conductivity), peripheral electronics (analyzers, power sources, etc.), size of the measurement volume, and the requirements of the analysis.

The test system of assay [2] is MCF-7 cells. In words: Commercially available apoptosis detection kit for fluorescent imaging (validation). The following applies: 1 μM STS, 3 days. The format is cell-based. As to the method: as §1

Regarding `CN[C@@H]1C[C@H]2O[C@@](C)([C@@H]1OC)n1c3ccccc3c3c4c(c5c6ccccc6n2c5c31)C(=O)NC4` [STS], in the assay with MCF-7 cells [1], the “ratio of early apoptotic cluster to total number of events” value is 19%, the “ratio of late apoptotic cluster to total number of events” value stood at 37% and the “ratio of viable cluster to total number of events” value turned out to be 44%. Further, in the assay with MCF-7 cells [2], the ratio apoptotic is 53% and the ratio viable was found to be 47%.
